Source: patent US20260200982A1, “HER RECEPTOR DERIVED PEPTIDES AND METHODS OF USE THEREOF” (Ramot at Tel-Aviv University Ltd., priority 2022, published 2026)
Bridges are numbered along the chain shown (N, C = ends). Primed or numbered codes have the meaning given here. Where no end group is shown, it is not given here. [ ]: non-standard residue; d: D form. The star is where a group is joined. FITC′ = fluorescein isothiocyanate; Myristoyl = CCCCCCCCCCCCCC(=O)*; S5 = C=CCCC[C@](C)(N)C(=O)O

Tests used:
Format in all cases: cell-based, human
[1] = system: non-cancerous (MCF10A) breast cell line; assay: Methylene blue viability assay, MCF10A; settings: 72 hours, 10 μM peptide; FIGS. 6A-B
From the text: (§1) Cell lines—Human breast cancer cell lines SKBR3 [Peles E et al. EMBO J. (1993) 12(3):961-71] and MCF7 [Faigenbloom L et al., Mol Syst Biol. (2015) 11(12):845] and human glioblastoma U87 [Goldberg L et al. Cancer Res. (2006) 66(24):11709-17] cell line, as well as Rat-1 fibroblast cells and H-Ras-transformed Rat-1 cells (EJ cells) [Marom M et al. J Biol Chem. (1995) 270(38):22263-70] and human Panc-1 and MIA PaCa-2 pancreatic cell lines (Rak R et al. Oncoscience. 2014 1(1):39-48; Weisz B et al. Oncogene (1999) 18, 2579±2588) were all grown in Dulbecco's modified Eagle's medium (DMEM; Biological Industries, Beithaemek, Israel). Human colorectal cancer cell lines DLD-1 (ATTC Cat No. CCL-221), HCT-116 (ATTC Cat No. CCL-247) and LNCaP prostate cancer cells were grown in Roswell Park Memorial Institute 1640 (RPMI 1640) medium and McCoy's 5A media, respectively (Sigma-Aldrich). All media were supplemented with antibiotics and 10% heat-inactivated fetal bovine serum (FBS; Gibco). Human breast cell line MCF10A [Bott A et al. Oncotarget. (2017) 8(27):43897-43914] was grown in Dulbeco's Modified Eagle's Medium/Nutrient Mixture F-12 HAM medium (DMEM F-12 HAM; Sigma-Aldrich), supplemented with antibiotics, 5% inactivated horse serum (HS; Invitrogen), 2 mM L-glutamine (Biological Industries, Beithaemek, Israel), 0.1 μg/ml cholera toxin (Sigma-Aldrich), 0.5 μg/ml hydrocortisone (Sigma-Aldrich), 10 μg/ml insulin (Biological Industries, Beithaemek, Israel) and 2 ng/ml EGF (R&D Systems). Cells were incubated at 37° C. in 5% CO2 in air, and the medium was changed every 3-4 days. Cells were passaged in trypsin/disodium ethylenediaminetetraacetic acid (Biological Industries, Beithaemek, Israel) when confluency reached 70%. One day prior to treatment the cells were plated at ~50% confluency in a medium supplemented with 10% FBS or 5% HS, accordingly.
(§2) Methylene blue viability assay—Cells were plated in 96-wells plates at cell densities of 1.5×10^3 (EJ, DLD-1), 3×10^3 (Rat-1, HCT-116, U87), 5×10^3 (SKBR3, MCF7) and 6×10^3 (MCF10A) cells/well. On the following day, cells were treated as indicated, and grown for 72 hours. Cell number determination was performed as described previously. IC-50 values were calculated using a non-linear regression model (logarithmic inhibitor vs. normalized response-variable slope) with the GraphPad Prism 6 software.

MCF7 breast cancer cells = settings: 72 hours; for MCF7 cell viability: 10 μM peptide, FIGS. 6A-B
From the text: as §1
as §2, with “On the following day, cells were treated as indicated, and grown for 72 hours.” left out

[2] = system: SKBR3 breast cancer cells; settings: 80 μM peptide for 72 hours; FIG. 4A
From the text: as §1
as §2, with “On the following day, cells were treated as indicated, and grown for 72 hours.” left out

Substance	viability of non-cancerous MCF10 breast cells [1]	MCF7 cell viability (MCF7 breast cancer cells)	effect of FITC-conjugation on cell viability activity compared to myr-NLS (MCF7 breast cancer cells; MCF7, FIG. 4E)	viability of SKBR3 breast cancer cells [2]
Myr-RRRHIVR(S5)RTL(S5)RLL (Myristoyl-RRRHIVR[S5]RTL[S5]RLL; staple 8-12; not fully specified; printed as Myr-RRRHIVR(S5)RTL(S5)RLL) [mN8-12]	decreased viability	decreased viability		
Myr-RRRHIVRK(FITC)RTLRRLL (Myristoyl-RRRHIVRK(FITC′)RTLRRLL) [myr-NLS-FITC]			did not affect myr-NLS activity	
Myr-RRRHIVRKRT(S5)RRL(S5) (Myristoyl-RRRHIVRKRT[S5]RRL[S5]; staple 11-15) [mN11-15]	had no effect	decreased MCF7 cell viability		
RRRRRRRRHIVRKRTLRRLL (R-NLS peptide)				significantly reduced viability
